# Test results: ChEMBL document CHEMBL1201862, “PubChem BioAssay data set” (2004)
# Active and inactive are the calls of the source.
# Key:
# [1] = Luminescence Cell-Based Dose Retest to Confirm Inhibitors of Cancer Stem Cells. [Related pubchem assays (depositor defined):AID2717, AID2721]; assay type: functional; settings: Homo sapiens
# [2] = biological target: Transitional endoplasmic reticulum ATPase (Homo sapiens, UniProt P55072); assay: p97 ATPase inhibitors, dose response, biochemical (AID 1534)
# Sequence of Transitional endoplasmic reticulum ATPase (Homo sapiens, UniProt P55072) (P55072 whole entry): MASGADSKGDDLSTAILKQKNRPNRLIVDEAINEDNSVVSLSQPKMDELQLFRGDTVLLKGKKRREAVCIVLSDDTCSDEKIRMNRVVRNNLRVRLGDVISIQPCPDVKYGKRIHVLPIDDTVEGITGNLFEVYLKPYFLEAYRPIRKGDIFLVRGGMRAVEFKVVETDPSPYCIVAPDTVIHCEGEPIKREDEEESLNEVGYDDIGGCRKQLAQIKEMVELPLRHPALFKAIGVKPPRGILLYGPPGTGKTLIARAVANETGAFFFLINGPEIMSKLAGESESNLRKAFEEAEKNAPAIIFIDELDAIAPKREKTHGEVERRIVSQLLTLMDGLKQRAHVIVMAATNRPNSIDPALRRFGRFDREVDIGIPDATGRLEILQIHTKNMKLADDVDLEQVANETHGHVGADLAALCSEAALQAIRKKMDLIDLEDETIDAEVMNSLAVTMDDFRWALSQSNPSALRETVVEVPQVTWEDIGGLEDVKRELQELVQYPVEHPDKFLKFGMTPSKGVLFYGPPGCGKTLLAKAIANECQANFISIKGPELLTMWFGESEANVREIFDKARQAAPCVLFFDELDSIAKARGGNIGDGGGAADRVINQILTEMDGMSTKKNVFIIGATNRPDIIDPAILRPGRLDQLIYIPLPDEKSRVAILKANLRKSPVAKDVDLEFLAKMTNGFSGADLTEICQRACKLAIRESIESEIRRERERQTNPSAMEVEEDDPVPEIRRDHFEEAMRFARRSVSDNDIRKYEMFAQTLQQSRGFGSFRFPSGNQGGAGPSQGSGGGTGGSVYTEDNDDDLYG
# X-box-binding protein 1 = X-box-binding protein 1 (Homo sapiens, UniProt P17861); assay type: functional, Cricetulus griseus;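 note: confirmatory dose-response counter-screen serving a CHOP assay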
# Sequence of X-box-binding protein 1 (P17861 whole entry): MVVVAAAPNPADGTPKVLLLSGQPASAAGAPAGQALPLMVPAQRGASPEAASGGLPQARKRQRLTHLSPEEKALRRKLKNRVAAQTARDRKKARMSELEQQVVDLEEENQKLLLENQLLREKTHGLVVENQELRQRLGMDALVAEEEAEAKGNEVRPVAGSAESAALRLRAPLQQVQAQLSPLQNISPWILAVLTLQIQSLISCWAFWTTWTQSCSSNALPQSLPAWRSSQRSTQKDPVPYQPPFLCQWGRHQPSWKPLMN
# [3] = biological target: DNA damage-inducible transcript 3 protein (Mus musculus, UniProt P35639); assay type: functional, Cricetulus griseus
# Sequence of DNA damage-inducible transcript 3 protein (P35639 whole entry): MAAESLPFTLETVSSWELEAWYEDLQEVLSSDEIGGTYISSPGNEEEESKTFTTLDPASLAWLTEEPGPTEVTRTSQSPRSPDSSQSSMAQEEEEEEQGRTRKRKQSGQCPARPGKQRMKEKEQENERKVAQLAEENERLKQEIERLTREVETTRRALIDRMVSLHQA
# [4] = biological target: Transitional endoplasmic reticulum ATPase (Homo sapiens, UniProt P55072, C522A); assay: C522A mutant p97 ATPase inhibitors, dose response, counter-screen for p97 inhibitor project, biochemical, luminescence (AID 1544)
# Sequence of Transitional endoplasmic reticulum ATPase (Homo sapiens, UniProt P55072, C522A) (P55072 2-806 C522A limits assumed): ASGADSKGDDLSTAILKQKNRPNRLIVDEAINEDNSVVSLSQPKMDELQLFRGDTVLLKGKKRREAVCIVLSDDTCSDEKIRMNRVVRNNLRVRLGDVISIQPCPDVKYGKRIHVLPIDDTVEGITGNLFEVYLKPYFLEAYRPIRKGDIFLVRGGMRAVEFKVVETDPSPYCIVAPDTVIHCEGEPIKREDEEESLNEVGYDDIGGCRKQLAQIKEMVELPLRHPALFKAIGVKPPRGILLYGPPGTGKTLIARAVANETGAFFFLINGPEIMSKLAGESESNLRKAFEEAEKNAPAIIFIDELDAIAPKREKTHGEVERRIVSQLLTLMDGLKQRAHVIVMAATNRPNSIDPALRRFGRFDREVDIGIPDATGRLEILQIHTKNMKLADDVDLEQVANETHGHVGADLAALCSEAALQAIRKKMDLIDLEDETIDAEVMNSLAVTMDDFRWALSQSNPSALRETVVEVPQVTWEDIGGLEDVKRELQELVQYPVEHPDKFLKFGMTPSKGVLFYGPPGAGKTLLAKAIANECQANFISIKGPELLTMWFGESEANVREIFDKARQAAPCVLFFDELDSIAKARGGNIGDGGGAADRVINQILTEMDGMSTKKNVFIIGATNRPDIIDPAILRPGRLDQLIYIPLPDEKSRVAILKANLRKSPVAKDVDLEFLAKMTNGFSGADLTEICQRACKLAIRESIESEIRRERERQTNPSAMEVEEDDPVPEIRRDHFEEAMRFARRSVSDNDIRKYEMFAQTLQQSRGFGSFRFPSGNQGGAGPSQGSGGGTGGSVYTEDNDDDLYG
# [5] = NIH3T3 cell viability loss – ATP luminescence, mouse fibroblasts, counter-screen, dose response (AID 2010); assay type: functional, cell-based;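 note: cells exposed to compound for about 90 hours before reading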
# [6] = Luminescence Cell-Based Dose Confirmation HTS to Identify Inhibitors of Platelet Dense Granule Release. [Related pubchem assays: 1663 (Primary HTS), 1678 (Summary of Project)]; assay type: functional
# Ion channel NompC = Ion channel NompC (Danio rerio, UniProt Q7T1G6); assay: Dose response cell-based high-throughput screening assay for agonists of the transient receptor potential channel N1 (TRPN1). [Related pubchem assays (depositor defined):AID1424, AID1448]; assay type: functional
# Sequence of Ion channel NompC (Q7T1G6 whole entry): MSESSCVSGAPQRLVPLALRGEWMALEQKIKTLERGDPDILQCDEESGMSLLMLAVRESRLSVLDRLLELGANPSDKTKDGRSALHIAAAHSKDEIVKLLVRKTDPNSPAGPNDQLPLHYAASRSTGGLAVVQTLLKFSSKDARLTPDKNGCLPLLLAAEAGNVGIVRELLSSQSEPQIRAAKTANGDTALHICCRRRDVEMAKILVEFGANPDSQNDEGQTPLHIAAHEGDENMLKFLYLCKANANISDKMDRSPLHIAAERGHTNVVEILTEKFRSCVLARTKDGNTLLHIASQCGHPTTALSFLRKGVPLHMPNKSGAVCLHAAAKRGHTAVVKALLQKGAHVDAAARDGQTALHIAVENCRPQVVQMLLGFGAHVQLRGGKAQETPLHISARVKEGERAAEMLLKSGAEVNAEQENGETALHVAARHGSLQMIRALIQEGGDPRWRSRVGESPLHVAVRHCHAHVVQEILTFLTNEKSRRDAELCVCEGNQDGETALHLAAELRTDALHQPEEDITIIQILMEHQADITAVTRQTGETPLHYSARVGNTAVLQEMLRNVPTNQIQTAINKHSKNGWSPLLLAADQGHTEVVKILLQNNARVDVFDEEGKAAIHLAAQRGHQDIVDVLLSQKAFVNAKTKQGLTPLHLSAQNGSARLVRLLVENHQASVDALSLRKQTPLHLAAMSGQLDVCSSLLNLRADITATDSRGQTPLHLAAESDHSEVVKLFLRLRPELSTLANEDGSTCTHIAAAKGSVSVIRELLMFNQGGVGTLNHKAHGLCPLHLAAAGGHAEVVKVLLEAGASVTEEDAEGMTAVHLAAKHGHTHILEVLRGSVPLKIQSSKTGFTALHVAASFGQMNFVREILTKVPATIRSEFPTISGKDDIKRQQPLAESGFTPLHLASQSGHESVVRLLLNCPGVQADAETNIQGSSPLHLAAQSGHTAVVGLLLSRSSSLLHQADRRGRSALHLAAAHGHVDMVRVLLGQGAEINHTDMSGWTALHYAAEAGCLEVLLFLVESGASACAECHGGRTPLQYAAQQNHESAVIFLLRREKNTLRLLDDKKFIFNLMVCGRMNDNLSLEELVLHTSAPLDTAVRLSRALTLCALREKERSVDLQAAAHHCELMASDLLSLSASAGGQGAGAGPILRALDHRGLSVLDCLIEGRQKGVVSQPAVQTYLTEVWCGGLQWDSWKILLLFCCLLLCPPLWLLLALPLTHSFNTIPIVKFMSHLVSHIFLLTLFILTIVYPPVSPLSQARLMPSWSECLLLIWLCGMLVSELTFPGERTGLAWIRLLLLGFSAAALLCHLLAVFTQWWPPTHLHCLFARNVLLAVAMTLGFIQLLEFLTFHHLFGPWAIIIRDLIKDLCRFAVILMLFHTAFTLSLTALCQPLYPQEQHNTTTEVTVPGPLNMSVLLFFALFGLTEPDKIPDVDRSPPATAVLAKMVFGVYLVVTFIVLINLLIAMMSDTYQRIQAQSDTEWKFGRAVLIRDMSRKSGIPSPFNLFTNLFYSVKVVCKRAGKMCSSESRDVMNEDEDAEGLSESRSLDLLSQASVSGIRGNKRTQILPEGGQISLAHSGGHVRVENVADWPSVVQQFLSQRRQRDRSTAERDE
# Vero [7] = assay: cells; assay type: functional; settings: Chlorocebus sabaeus
# [8] = biological target: Luciferin 4-monooxygenase (Photinus pyralis, UniProt P08659); assay: inhibition of purified Photinus pyralis luciferase – biochemical, luminescence, dose response (AID 1891)
# Sequence of Luciferin 4-monooxygenase (P08659 whole entry): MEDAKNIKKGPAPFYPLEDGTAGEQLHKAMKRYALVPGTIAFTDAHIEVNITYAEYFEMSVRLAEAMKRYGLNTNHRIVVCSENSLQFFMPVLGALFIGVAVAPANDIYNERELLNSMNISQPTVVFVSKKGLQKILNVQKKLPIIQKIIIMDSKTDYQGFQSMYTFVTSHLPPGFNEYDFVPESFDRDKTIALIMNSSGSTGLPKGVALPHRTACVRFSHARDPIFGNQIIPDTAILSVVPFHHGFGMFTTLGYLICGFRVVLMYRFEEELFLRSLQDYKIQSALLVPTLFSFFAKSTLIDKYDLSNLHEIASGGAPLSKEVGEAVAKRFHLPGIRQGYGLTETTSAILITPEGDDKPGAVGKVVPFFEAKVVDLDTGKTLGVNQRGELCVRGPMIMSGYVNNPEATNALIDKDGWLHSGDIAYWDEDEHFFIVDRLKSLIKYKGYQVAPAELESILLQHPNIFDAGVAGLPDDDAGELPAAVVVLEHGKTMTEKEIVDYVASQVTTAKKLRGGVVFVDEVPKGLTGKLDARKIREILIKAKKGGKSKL
# [9] = biological target: T1, Short transient receptor potential channel 4 (Mus musculus, UniProt Q9QUQ5); assay: calcium entry via TRPC4 opening agents – cell-based, HEK293 TRPC4/mu-opioid, Fluo-4 calcium, dose response (AID 434937); assay type: functional
# T1 sequence (Q9QUQ5 whole entry): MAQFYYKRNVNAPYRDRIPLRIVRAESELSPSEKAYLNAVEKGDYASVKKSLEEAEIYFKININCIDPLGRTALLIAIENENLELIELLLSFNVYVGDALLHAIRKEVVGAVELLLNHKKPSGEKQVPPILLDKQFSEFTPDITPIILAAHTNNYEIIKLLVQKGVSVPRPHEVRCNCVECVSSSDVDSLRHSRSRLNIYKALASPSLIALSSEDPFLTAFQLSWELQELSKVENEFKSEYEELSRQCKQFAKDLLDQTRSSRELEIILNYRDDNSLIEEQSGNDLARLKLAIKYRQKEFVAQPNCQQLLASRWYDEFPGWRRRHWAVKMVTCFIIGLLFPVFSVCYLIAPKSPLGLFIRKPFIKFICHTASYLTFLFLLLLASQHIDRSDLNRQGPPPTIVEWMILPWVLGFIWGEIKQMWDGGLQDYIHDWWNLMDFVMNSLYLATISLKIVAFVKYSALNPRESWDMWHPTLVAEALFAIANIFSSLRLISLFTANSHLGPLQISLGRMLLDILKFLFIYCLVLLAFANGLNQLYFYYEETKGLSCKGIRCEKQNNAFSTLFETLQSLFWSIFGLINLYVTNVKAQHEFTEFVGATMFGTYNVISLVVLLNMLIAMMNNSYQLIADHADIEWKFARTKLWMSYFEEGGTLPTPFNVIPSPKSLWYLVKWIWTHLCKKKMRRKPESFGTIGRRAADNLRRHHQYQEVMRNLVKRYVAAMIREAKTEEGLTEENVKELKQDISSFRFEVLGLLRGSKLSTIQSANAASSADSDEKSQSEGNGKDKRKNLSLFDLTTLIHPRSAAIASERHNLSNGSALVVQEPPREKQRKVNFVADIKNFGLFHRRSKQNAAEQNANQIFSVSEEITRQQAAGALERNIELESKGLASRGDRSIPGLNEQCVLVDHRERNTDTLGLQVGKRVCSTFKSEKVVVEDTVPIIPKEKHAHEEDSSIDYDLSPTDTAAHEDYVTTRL
# Mucolipin-3 = Mucolipin-3 (Homo sapiens, UniProt Q8TDD5); assay: Fluorescence counterscreen assay for […] agonists: dose response cell-based high-throughput screening assay to identify agonists of the transient receptor potential channel ML3 (TRPML3). [Related pubchem assays: 1424, 1448 ]; assay type: functional
# Sequence of Mucolipin-3 (Q8TDD5 whole entry): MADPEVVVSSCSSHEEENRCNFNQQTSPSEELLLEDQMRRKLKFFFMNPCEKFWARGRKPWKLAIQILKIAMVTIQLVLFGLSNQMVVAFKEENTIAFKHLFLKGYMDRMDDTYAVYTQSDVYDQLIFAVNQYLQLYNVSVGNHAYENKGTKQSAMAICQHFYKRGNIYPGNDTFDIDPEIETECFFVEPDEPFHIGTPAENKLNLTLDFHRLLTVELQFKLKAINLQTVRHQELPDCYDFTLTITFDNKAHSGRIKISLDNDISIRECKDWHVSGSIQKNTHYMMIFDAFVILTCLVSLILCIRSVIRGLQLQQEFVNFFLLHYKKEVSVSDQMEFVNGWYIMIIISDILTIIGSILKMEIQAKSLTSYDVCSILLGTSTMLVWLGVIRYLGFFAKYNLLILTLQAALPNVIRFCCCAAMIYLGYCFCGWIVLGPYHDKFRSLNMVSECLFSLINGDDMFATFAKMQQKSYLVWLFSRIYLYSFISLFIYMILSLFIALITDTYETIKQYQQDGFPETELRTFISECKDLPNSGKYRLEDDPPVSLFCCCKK
# Vero [10] = assay: cells; assay type: functional, cell-based; settings: Chlorocebus sabaeus
# [11] = Trypanosoma cruzi growth suppression in host cells – NIH3T3 host cells, beta-gal luminescence, confirmation (AID 2044); assay type: functional, cell-based;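 note: intracellular parasites grown in NIH/3T3 mouse fibroblasts as host cells; luminescent beta-galactosidase reporter signal from transgenic T. cruzi replicating inside host cells; inhibitors lower the luminescence signal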
# 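Throughout, for AC50: cells exposed to compound for roughly 70 hours or longer before luminescence read.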
SMILES,AC50 [1],IC50 [2],Absolute IC50 (XBP1) (X-box-binding protein 1) [µM],Absolute IC50 (CHOP) [3] [µM],IC50 [4],EC50 [5],EC50 [6],EC50 (Ion channel NompC),CC50 (Vero [7]),EC50 [8],EC50 [9],EC50 (Mucolipin-3),IC50 (Vero [10]),EC50 [11]
Cc1cc(Nc2ccccc2)nc(-c2ccccc2O)n1,5.64 µM (active),> 50 µM (not active),< 10,10,> 50 µM (not active),–,–,–,–,–,–,–,–,–
CC(C)(C)c1ccc(C(=O)NC(=S)NNC(=O)c2cccs2)cc1,–,–,–,–,–,13.5 µM (active),24.5 µM (active),0.168 µM (active),17.4 µM (active),> 112 µM (not active),1.5 µM (active),0.292 µM (active),> 12.5 µM (active),2.15 µM (active)
